In PubChem BioAssay (NCI):
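Values below derive from 48-hour exposures of cells grown in 96-well plates, with endpoints linearly interpolated between the two concentrations bracketing the appropriate inhibition level. The concentration for full growth arrest is given as TGI.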

Assays:
Assay in all cases: DTP human tumour cell line panel, 48 h
HT29 colon = system: HT29 colon
SN12C renal = system: SN12C renal
SNB-19 CNS = system: SNB-19 CNS
UACC-257 melanoma = system: UACC-257 melanoma
RXF 393 renal = system: RXF 393 renal
HOP-92 NSCLC = system: HOP-92 NSCLC
IGROV1 ovarian = system: IGROV1 ovarian
KM20L2 colon = system: KM20L2 colon
OVCAR-4 ovarian = system: OVCAR-4 ovarian
SK-MEL-2 melanoma = system: SK-MEL-2 melanoma
MALME-3M melanoma = system: MALME-3M melanoma
RXF-631 renal = system: RXF-631 renal
SW-620 colon = system: SW-620 colon
A549 NSCLC = system: A549 NSCLC
EKVX NSCLC = system: EKVX NSCLC
NCI-H460 lung = system: NCI-H460 lung
SNB-75 CNS = system: SNB-75 CNS
TK-10 renal = system: TK-10 renal
A498 renal = system: A498 renal
HL-60(TB) leukemia = system: HL-60(TB) leukemia
SNB-78 CNS = system: SNB-78 CNS
NCI-H522 lung = system: NCI-H522 lung
DMS 114 small cell lung = system: DMS 114 small cell lung
COLO 205 colon = system: COLO 205 colon
MOLT-4 leukemia = system: MOLT-4 leukemia
XF 498 CNS = system: XF 498 CNS
OVCAR-8 ovarian = system: OVCAR-8 ovarian
DLD-1 colon = system: DLD-1 colon
SF-539 CNS = system: SF-539 CNS
NCI-H23 lung = system: NCI-H23 lung
HCT-116 colon = system: HCT-116 colon
U251 CNS = system: U251 CNS
LOX IMVI melanoma = system: LOX IMVI melanoma
SR leukemia = system: SR leukemia
OVCAR-5 ovarian = system: OVCAR-5 ovarian
LXFL 529 NSCLC = system: LXFL 529 NSCLC
SF-295 CNS = system: SF-295 CNS
786-0 renal = system: 786-0 renal
SK-MEL-28 melanoma = system: SK-MEL-28 melanoma
OVCAR-3 ovarian = system: OVCAR-3 ovarian
KM12 colon = system: KM12 colon
HOP-62 NSCLC = system: HOP-62 NSCLC
CCRF-CEM leukemia = system: CCRF-CEM leukemia
UACC-62 melanoma = system: UACC-62 melanoma
UO-31 renal = system: UO-31 renal
HCT-15 colon = system: HCT-15 colon
SF-268 CNS = system: SF-268 CNS
SK-OV-3 ovarian = system: SK-OV-3 ovarian
M14 melanoma = system: M14 melanoma
M19-MEL melanoma = system: M19-MEL melanoma
SK-MEL-5 melanoma = system: SK-MEL-5 melanoma
ACHN renal = system: ACHN renal
HCC-2998 colon = system: HCC-2998 colon
K-562 leukemia = system: K-562 leukemia
NCI-H226 lung = system: NCI-H226 lung
CAKI-1 renal = system: CAKI-1 renal
RPMI-8226 leukemia = system: RPMI-8226 leukemia

`CC1=CC[C@@H](C(C)(C)O)C[C@@H]1O` was tested, and the TGI (HT29 colon) was > 5000 µM, the TGI (SN12C renal) was > 5000 µM and the TGI (SNB-19 CNS) was > 5000 µM. For the same compound, the TGI (UACC-257 melanoma) was > 5000 µM, the TGI (RXF 393 renal) was > 5000 µM and the TGI (HOP-92 NSCLC) was > 5000 µM. The TGI (IGROV1 ovarian) was > 5000 µM, the TGI (KM20L2 colon) was > 5000 µM and the TGI (OVCAR-4 ovarian) was > 5000 µM. For the same compound, the TGI (SK-MEL-2 melanoma) was > 5000 µM, the TGI (MALME-3M melanoma) was > 5000 µM and the TGI (RXF-631 renal) was > 5000 µM. The TGI (SW-620 colon) was > 5000 µM, the TGI (A549 NSCLC) was > 5000 µM and the TGI (EKVX NSCLC) was > 5000 µM. The TGI (NCI-H460 lung) was > 5000 µM, the TGI (SNB-75 CNS) was > 5000 µM and the TGI (TK-10 renal) was > 5000 µM. The TGI (A498 renal) was > 5000 µM, the TGI (HL-60(TB) leukemia) was > 5000 µM and the TGI (SNB-78 CNS) was > 5000 µM. The TGI (NCI-H522 lung) was > 5000 µM, the TGI (DMS 114 small cell lung) was > 5000 µM and the TGI (COLO 205 colon) was > 5000 µM. For the same compound, the TGI (MOLT-4 leukemia) was > 5000 µM, the TGI (XF 498 CNS) was > 5000 µM and the TGI (OVCAR-8 ovarian) was > 5000 µM. The TGI (DLD-1 colon) was > 5000 µM, the TGI (SF-539 CNS) was > 5000 µM and the TGI (NCI-H23 lung) was > 5000 µM. For the same compound, the TGI (HCT-116 colon) was > 5000 µM, the TGI (U251 CNS) was > 5000 µM and the TGI (LOX IMVI melanoma) was > 5000 µM. For the same compound, the TGI (SR leukemia) was > 5000 µM, the TGI (OVCAR-5 ovarian) was > 5000 µM and the TGI (LXFL 529 NSCLC) was > 5000 µM. For the same compound, the TGI (SF-295 CNS) was > 5000 µM, the TGI (786-0 renal) was > 5000 µM and the TGI (SK-MEL-28 melanoma) was > 5000 µM. For the same compound, the TGI (OVCAR-3 ovarian) was > 5000 µM, the TGI (KM12 colon) was > 5000 µM and the TGI (HOP-62 NSCLC) was > 5000 µM. The TGI (CCRF-CEM leukemia) was > 5000 µM, the TGI (UACC-62 melanoma) was > 5000 µM and the TGI (UO-31 renal) was > 5000 µM. The TGI (HCT-15 colon) was > 5000 µM, the TGI (SF-268 CNS) was > 5000 µM and the TGI (SK-OV-3 ovarian) was > 5000 µM. For the same compound, the TGI (M14 melanoma) was > 5000 µM, the TGI (M19-MEL melanoma) was > 5000 µM and the TGI (SK-MEL-5 melanoma) was > 5000 µM. For the same compound, the TGI (ACHN renal) was > 5000 µM, the TGI (HCC-2998 colon) was > 5000 µM and the TGI (K-562 leukemia) was > 5000 µM. For the same compound, the TGI (NCI-H226 lung) was > 5000 µM.

For `Clc1ccccc1C1SCc2nc3ccccc3n21` (centres undefined), the TGI (HT29 colon) was > 100 µM, the TGI (SN12C renal) was 51.8 µM and the TGI (SNB-19 CNS) was 40.6 µM. For the same compound, the TGI (RXF 393 renal) was 60.5 µM, the TGI (HOP-92 NSCLC) was 31.3 µM and the TGI (IGROV1 ovarian) was > 100 µM. For the same compound, the TGI (OVCAR-4 ovarian) was > 100 µM, the TGI (SK-MEL-2 melanoma) was 57.1 µM and the TGI (MALME-3M melanoma) was 53.4 µM. The TGI (SW-620 colon) was > 100 µM, the TGI (A549 NSCLC) was > 100 µM and the TGI (EKVX NSCLC) was 81.9 µM. For the same compound, the TGI (NCI-H460 lung) was > 100 µM, the TGI (SNB-75 CNS) was 11.3 µM and the TGI (TK-10 renal) was 71.6 µM. The TGI (HL-60(TB) leukemia) was 42.3 µM, the TGI (SNB-78 CNS) was 53.6 µM and the TGI (NCI-H522 lung) was 49.5 µM. The TGI (COLO 205 colon) was > 100 µM, the TGI (MOLT-4 leukemia) was > 100 µM and the TGI (XF 498 CNS) was 87.2 µM. For the same compound, the TGI (CAKI-1 renal) was > 100 µM, the TGI (OVCAR-8 ovarian) was > 100 µM and the TGI (DLD-1 colon) was > 100 µM. For the same compound, the TGI (SF-539 CNS) was > 100 µM, the TGI (NCI-H23 lung) was > 100 µM and the TGI (HCT-116 colon) was 56.3 µM. It also gave a TGI (U251 CNS) of 54.8 µM, a TGI (LOX IMVI melanoma) of 81.8 µM and a TGI (SR leukemia) of 59.6 µM. The TGI (OVCAR-5 ovarian) was 79.4 µM, the TGI (LXFL 529 NSCLC) was > 100 µM and the TGI (SF-295 CNS) was > 100 µM. For the same compound, the TGI (786-0 renal) was 88 µM, the TGI (SK-MEL-28 melanoma) was 76.4 µM and the TGI (OVCAR-3 ovarian) was 29.5 µM. For the same compound, the TGI (KM12 colon) was > 100 µM, the TGI (HOP-62 NSCLC) was 64.6 µM and the TGI (CCRF-CEM leukemia) was > 100 µM. The TGI (HCT-15 colon) was > 100 µM, the TGI (SF-268 CNS) was > 100 µM and the TGI (SK-OV-3 ovarian) was 82.7 µM. The TGI (M14 melanoma) was 59.9 µM, the TGI (RPMI-8226 leukemia) was > 100 µM and the TGI (M19-MEL melanoma) was > 100 µM. The TGI (SK-MEL-5 melanoma) was 33.7 µM, the TGI (ACHN renal) was > 100 µM and the TGI (K-562 leukemia) was > 100 µM. For the same compound, the TGI (NCI-H226 lung) was 70.6 µM.
